Assay results as given in PubChem BioAssay AID2060888 (Molecular Pharmacology Branch, DTP, NCI, 2025).

Test system: 695427-040-R-J1-PDC complex spheroid viability
Experiment: Anticancer human tumor 695427-040-R-J1-PDC patient-derived colon adenocarcinoma cell line growth inhibition [RAS]
Conditions: for IC50: curve of first compound; for viability, T/C: stronger effect = lower value
Method in brief: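 Multi-cell-type spheroids: tumor cells plus HUVEC endothelial cells and mesenchymal stem cells. RAS-pathway inhibitors were combined with targeted agents, each dosed in half-log steps down from clinical Cmax, or from 10 microM when Cmax was unknown.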

[1] = second compound 0.00316 µM, first compound 0.00316 µM
[2] = second compound 0.00316 µM, first compound 0.01 µM
[3] = second compound 0.00316 µM, first compound 0.0316 µM
[4] = second compound 0.00316 µM, first compound 0.1 µM
[5] = second compound 0.00316 µM, first compound 0.316 µM
[6] = second compound 0.00316 µM, first compound 1 µM
[7] = second compound 0.01 µM, first compound 0.00316 µM
[8] = second compound 0.01 µM, first compound 0.01 µM
[9] = second compound 0.01 µM, first compound 0.0316 µM
[10] = second compound 0.01 µM, first compound 0.1 µM
[11] = second compound 0.01 µM, first compound 0.316 µM
[12] = second compound 0.01 µM, first compound 1 µM
[13] = second compound 0.0316 µM, first compound 0.00316 µM
[14] = second compound 0.0316 µM, first compound 0.01 µM
[15] = second compound 0.0316 µM, first compound 0.0316 µM
[16] = second compound 0.0316 µM, first compound 0.1 µM
[17] = second compound 0.0316 µM, first compound 0.316 µM
[18] = second compound 0.0316 µM, first compound 1 µM
[19] = second compound 0.1 µM, first compound 0.00316 µM
[20] = second compound 0.1 µM, first compound 0.01 µM
[21] = second compound 0.1 µM, first compound 0.0316 µM
[22] = second compound 0.1 µM, first compound 0.1 µM
[23] = second compound 0.1 µM, first compound 0.316 µM
[24] = second compound 0.1 µM, first compound 1 µM
[25] = second compound 0.316 µM, first compound 0.00316 µM
[26] = second compound 0.316 µM, first compound 0.01 µM
[27] = second compound 0.316 µM, first compound 0.0316 µM
[28] = second compound 0.316 µM, first compound 0.1 µM
[29] = second compound 0.316 µM, first compound 0.316 µM
[30] = second compound 0.316 µM, first compound 1 µM
[31] = second compound 1 µM, first compound 0.00316 µM
[32] = second compound 1 µM, first compound 0.01 µM
[33] = second compound 1 µM, first compound 0.0316 µM
[34] = second compound 1 µM, first compound 0.1 µM
[35] = second compound 1 µM, first compound 0.316 µM
[36] = second compound 1 µM, first compound 1 µM
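Note: viability read after seven days of drug exposure.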
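Throughout, for viability, T/C: 100% = DMSO vehicle control viability.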

CC1(C)CCC(Nc2ncc(C(F)(F)F)c(-c3c[nH]c4c(P(C)(C)=O)c(C#N)ccc34)n2)CN1 (stereo unspecified) + C#Cc1c(F)ccc2cc(O)cc(-c3ncc4c(N5CC6CCC(C5)N6)nc(OCC56CCCN5CC(F)C6)nc4c3F)c12
IC50 (second compound 0.0316 µM): > 300 nM
IC50 (second compound 0.1 µM): > 300 nM
IC50 (second compound 0.316 µM): > 300 nM
IC50 (second compound 1 µM): > 300 nM
IC50 (second compound 3.16 µM): 3.19 nM
IC50 (second compound 10 µM): < 0.949 nM
viability, T/C (second compound 0.0316 µM, first compound 0.000949 µM): 104%
viability, T/C (second compound 0.0316 µM, first compound 0.003 µM): 91.6%
viability, T/C (second compound 0.0316 µM, first compound 0.00949 µM): 84.4%
viability, T/C (second compound 0.0316 µM, first compound 0.03 µM): 79%
viability, T/C (second compound 0.0316 µM, first compound 0.0949 µM): 84.5%
viability, T/C (second compound 0.0316 µM, first compound 0.3 µM): 80.3%
viability, T/C (second compound 0.1 µM, first compound 0.000949 µM): 101%
viability, T/C (second compound 0.1 µM, first compound 0.003 µM): 87.8%
viability, T/C (second compound 0.1 µM, first compound 0.00949 µM): 84.3%
viability, T/C (second compound 0.1 µM, first compound 0.03 µM): 88.6%
viability, T/C (second compound 0.1 µM, first compound 0.0949 µM): 79%
viability, T/C (second compound 0.1 µM, first compound 0.3 µM): 73.2%
viability, T/C (second compound 0.316 µM, first compound 0.000949 µM): 87.2%
viability, T/C (second compound 0.316 µM, first compound 0.003 µM): 89.7%
viability, T/C (second compound 0.316 µM, first compound 0.00949 µM): 99.2%
viability, T/C (second compound 0.316 µM, first compound 0.03 µM): 74%
viability, T/C (second compound 0.316 µM, first compound 0.0949 µM): 76.8%
viability, T/C (second compound 0.316 µM, first compound 0.3 µM): 70.4%
viability, T/C (second compound 1 µM, first compound 0.000949 µM): 67.7%
viability, T/C (second compound 1 µM, first compound 0.003 µM): 64.5%
viability, T/C (second compound 1 µM, first compound 0.00949 µM): 59.9%
viability, T/C (second compound 1 µM, first compound 0.03 µM): 62.5%
viability, T/C (second compound 1 µM, first compound 0.0949 µM): 67.7%
viability, T/C (second compound 1 µM, first compound 0.3 µM): 57.8%
viability, T/C (second compound 3.16 µM, first compound 0.000949 µM): 66.8%
viability, T/C (second compound 3.16 µM, first compound 0.003 µM): 49.2%
viability, T/C (second compound 3.16 µM, first compound 0.00949 µM): 51.9%
viability, T/C (second compound 3.16 µM, first compound 0.03 µM): 48.6%
viability, T/C (second compound 3.16 µM, first compound 0.0949 µM): 48%
viability, T/C (second compound 3.16 µM, first compound 0.3 µM): 43.5%
viability, T/C (second compound 10 µM, first compound 0.000949 µM): 37.4%
viability, T/C (second compound 10 µM, first compound 0.003 µM): 39.2%
viability, T/C (second compound 10 µM, first compound 0.00949 µM): 43.2%
viability, T/C (second compound 10 µM, first compound 0.03 µM): 35.3%
viability, T/C (second compound 10 µM, first compound 0.0949 µM): 39.3%
viability, T/C (second compound 10 µM, first compound 0.3 µM): 34.3%

C=CC(=O)Nc1cc(Nc2nccc(-c3cn(C)c4ccccc34)n2)c(OC)cc1N(C)CCN(C)C + C=CC(=O)N1CCN(c2nc(OCC3CCCN3C)nc3c(F)c(-c4nc(N)cc(C)c4C(F)(F)F)c(Cl)cc23)C(C)C1
IC50 (second compound 0.00316 µM): 406 nM
IC50 (second compound 0.01 µM): 500 nM
IC50 (second compound 0.0316 µM): 403 nM
IC50 (second compound 0.1 µM): 429 nM
IC50 (second compound 0.316 µM): 457 nM
IC50 (second compound 1 µM): 429 nM
viability, T/C [1]: 96.5%
viability, T/C [2]: 94.1%
viability, T/C [3]: 86.2%
viability, T/C [4]: 76.5%
viability, T/C [5]: 54.6%
viability, T/C [6]: 31.4%
viability, T/C [7]: 102%
viability, T/C [8]: 94.5%
viability, T/C [9]: 83.7%
viability, T/C [10]: 72.2%
viability, T/C [11]: 57.5%
viability, T/C [12]: 39.2%
viability, T/C [13]: 112%
viability, T/C [14]: 99.1%
viability, T/C [15]: 83.8%
viability, T/C [16]: 71%
viability, T/C [17]: 58.2%
viability, T/C [18]: 32.7%
viability, T/C [19]: 94.7%
viability, T/C [20]: 100%
viability, T/C [21]: 88%
viability, T/C [22]: 76.4%
viability, T/C [23]: 56.7%
viability, T/C [24]: 33%
viability, T/C [25]: 105%
viability, T/C [26]: 94.7%
viability, T/C [27]: 84.6%
viability, T/C [28]: 80.3%
viability, T/C [29]: 60.1%
viability, T/C [30]: 30.2%
viability, T/C [31]: 90.3%
viability, T/C [32]: 95.5%
viability, T/C [33]: 88.5%
viability, T/C [34]: 80.7%
viability, T/C [35]: 58.1%
viability, T/C [36]: 27.6%

O=C(c1ccc(F)c(F)c1Nc1ccc(I)cc1F)N1CC(O)([C@@H]2CCCCN2)C1 + C=CC(=O)N1CCN(c2nc(OCC3CCCN3C)nc3c(F)c(-c4nc(N)cc(C)c4C(F)(F)F)c(Cl)cc23)C(C)C1
IC50 (second compound 0.00316 µM): 37 nM
IC50 (second compound 0.01 µM): 39.8 nM
IC50 (second compound 0.0316 µM): 39.6 nM
IC50 (second compound 0.1 µM): 46.3 nM
IC50 (second compound 0.316 µM): 46.6 nM
IC50 (second compound 1 µM): 56.4 nM
viability, T/C [1]: 81.5%
viability, T/C [2]: 75.2%
viability, T/C [3]: 50.1%
viability, T/C [4]: 32.4%
viability, T/C [5]: 13.7%
viability, T/C [6]: 6.97%
viability, T/C [7]: 85.8%
viability, T/C [8]: 74.7%
viability, T/C [9]: 54.9%
viability, T/C [10]: 30.2%
viability, T/C [11]: 15.9%
viability, T/C [12]: 2.53%
viability, T/C [13]: 86.5%
viability, T/C [14]: 72%
viability, T/C [15]: 58%
viability, T/C [16]: 27.8%
viability, T/C [17]: 15.4%
viability, T/C [18]: 4.49%
viability, T/C [19]: 87.7%
viability, T/C [20]: 73.1%
viability, T/C [21]: 60.8%
viability, T/C [22]: 32.6%
viability, T/C [23]: 16.4%
viability, T/C [24]: 5.49%
viability, T/C [25]: 82.8%
viability, T/C [26]: 86.4%
viability, T/C [27]: 55.4%
viability, T/C [28]: 31.6%
viability, T/C [29]: 15.2%
viability, T/C [30]: 2.92%
viability, T/C [31]: 78.8%
viability, T/C [32]: 81.7%
viability, T/C [33]: 60.2%
viability, T/C [34]: 37.8%
viability, T/C [35]: 15.1%
viability, T/C [36]: 3.14%
